This note sets out measurements from patent US20230293525A1, “METHODS AND COMPOSITIONS FOR THE TREATMENT OF VIRAL INFECTIONS” (priority 2020, published 2023).

The experiment has as its system minor spliceosome snRNAs including U11, U12, U6atac, and U4atac. Briefly: qPCR of minor spliceosome snRNAs in HEK 293 cells treated with Tenovin 1. It counts as cell-based. To be noted: 10 μM, incubated 24 hours, qPCR normalized to RN7SK, versus DMSO. A general note: Quantitative PCR measures a nucleic acid by following its amplification.

For `CC(=O)Nc1ccc(NC(=S)NC(=O)c2ccc(C(C)(C)C)cc2)cc1` [Tenovin 1], the “levels of minor spliceosome snRNAs U11, U12, U6atac and U4atac (qPCR)” value is listed as “successfully downregulates”.
